Results on 1 compound are retold here after patent US20240246903A1, “INDANONE AND TETRALONEKETO OR HYDROXYL OXIMES AS CANCEL THERAPEUTICS” (Board of Regents, The University of Texas System, priority 2021, published 2024).

The subject of this test is GBM cells. Description: GBM cell viability (MTT assay). It is filed as cell-based. The following applies: FIG. 3, read-out: concentration that reduces cell viability by 50%. Here is the method: To assess, the antitumor activity of the new ERβ agonist compounds, GBM cells were assessed for viability using a commercially available MTT assay. Briefly, the assay determines the number of viable cells in culture by […], which indicates the presence of metabolically active cells. Previously described agonists such as LY was able to reduce viability by 50% with concentration of 10 μM or greater. The new compounds described in this disclosure have higher potency than existing compounds and some reduce cell viability by 50% at concentrations even at 3 μM (FIG. 3).

Each structure is given as a SMILES string.

Turning to `Oc1ccc([C@@H]2Oc3ccc(O)cc3[C@@H]3CCC[C@@H]32)cc1` [LY, (3aS,4R,9bR)-4-(4-hydroxyphenyl)-1,2,3,3a,4,9b-hexahydrocyclopenta[c]chromen-8-ol], the IC50 is at least 10 µM.
